The subject of assay [1] is VC199 [sir-2.1(ok434)]. As to the kind of experiment: Pharyngeal pumping rate, VC199. Conditions: increasing concentrations of SA, day 15; P=0.5. The format is in vivo, C. elegans. As for the experimental part: As with the N2 strain, the present inventors treated VC199 nematodes with increasing concentrations of SA and assessed the age-dependent accumulation of autofluorescent lipofuscin granules and decrease in pharyngeal pumping rate.
C. elegans pharyngeal pumping rate assays were performed on 60-mm agar plates with bacterial lawns at room temperature. Every fifth day, worms were transferred to fresh bacteria-seeded NGM plates, and incubated at 25° C. for 10 min in order to equilibrate feeding rates before measurement. After 10 min incubation, worms were observed under the Zeiss TLB 3.1 microscope with focus on the pharynx. The number of contractions in the terminal bulb of the pharynx was counted for 20 s and then plotted.

The test system of assay [2] is N2 WT C. elegans. The assay is described as follows: Pharyngeal pumping rate, N2. The format is in vivo. Conditions: increasing concentrations of SA, measured every fifth day; p<0.05. From the text:
To quantify this, the present inventors chose both a biochemical endpoint (lipofuscin autofluorescence) and a behavioral measure (pharyngeal pumping) that change predictably with aging and are associated with healthspan. The accumulation in the nematode intestinal epithelium of autofluorescent lipofuscin granules, a heterogeneous mixture of oxidized and crosslinked lipids and proteins and advanced glycation end products, is a known conserved phenomenon observed to increase with age. Visualization of lipofuscin granules is often used as an age-related assessment of healthspan. Lipofuscin autofluorescence were quantified over time (every 5 days) in N2 adult nematodes (10-20 per colony) in the presence of increasing doses of SA. […] For a behavioral/functional measurement of health, pharyngeal pumping rates were quantified. […] Pharyngeal pumping rates quantified in WT N2 worms established on OP50-seeded NGM agar plates with increasing concentrations of SA. The frequency of pharyngeal pumping was measured and recorded every fifth day as the animals aged.
C. elegans pharyngeal pumping rate assays were performed on 60-mm agar plates with bacterial lawns at room temperature. […] The number of contractions in the terminal bulb of the pharynx was counted for 20 s and then plotted.

The test system of assay [3] is VC199 SIR-2.1 mutants. The assay is described as follows: mtDNA copy number by qPCR, VC199. The format is in vivo, C. elegans. The following applies: with age or with SA treatment. The source says:
Mitochondria lie at the center of aging biology, playing crucial roles in energy production, carbon substrate metabolism, apoptosis regulation, and redox balance and signaling. Since sirtuins play a major role in regulating mitochondrial function, the present inventors next wanted to investigate whether SA was exerting any of its effects via protection of mitochondrial processes. To investigate SA's effects on mitochondrial respiration, the present inventors administered SA to WT N2 (FIG. 5A) and non-functional SIR-2.1 mutant worms (FIG. 5B) and measured oxygen consumption rate (OCR) in whole worms over several days. […] The present inventors also examined the effect of SA treatment on mitochondrial DNA (mtDNA) integrity.
Relative mitochondrial and nuclear copy number were measured by quantitative, real-time PCR [90]. Primers for NADH dehydrogenase unit 1 (nd1) and a 164 bp region of the cox-4 gene were used in determination of mtDNA copy number. The nd1 forward primer 5′-[…]-3′ and reverse primer 5′-[…]-3′. Cox-4 forward primer 5′-GCCGACTGGAAGAACTTGTC-3′ and reverse primer 5′-[…]-3′. […] Amplified products were detected with SYBR Green (iQ™ SYBR® Green Supermix, Bio-Rad) and fluorescent signal intensities were determined by CFX96 Touch™ Real-Time PCR Detection System (Bio-Rad) by software CFX Manager™ (version 3.1). […]

Molecules are shown by their SMILES.

Regarding `NCc1ccccc1O` [SA, salicylamine], in assay [1], the pharyngeal pumping rate result is “failed to preserve pharyngeal pumping rate”. The “age-associated decline in pharyngeal pumping rate” value in assay [2] is “dose-dependent protection”. In assay [3], the “mtDNA copy number relative to nuclear DNA” value is “no significant difference”.

The record behind these values is patent publication US11633370B2, “Use of scavengers of reactive gamma-ketoaldehydes to extend cell lifespan and healthspan” (Vanderbilt University, priority 2016, dated 2023).
